# Measurements: patent US8084492B2, “Benzofuran compound and pharmaceutical composition containing the same” (The New Industry Research Organization, priority 2004, dated 2011)
# Biological target: T1, human BLT1 (Homo sapiens, UniProt Q15722)
# T1 construct: expressed in transfected cells; host or cells: CHO cells
# Experiment: LTB4-induced intracellular calcium increase (Fluo-3) in CHO cells expressing human BLT1
# Assay type: cell-based
# Conditions: CHO cells harbouring BLT1; compound 10 μM; 100 nM LTB4; fluorescence AUC in 10 min
# Method: (§1) CHO cells harbouring a gene encoding human BLT1 or human BLT2 and functionally expressing the receptor were seeded in a 96 well plate at 4×10^4 cells/well, and cultured at 37° C. for 60 min. The culture supernatant was removed and a loading buffer (100 μl) containing 4 μM Fluo-3 (manufactured by Dojindo), 0.04% pluoronic acid (manufactured by Sigma) and 1% serum was added. The cells were cultured at 37° C. for 30 min to introduce Fluo-3 into the cells. After culture, the cells were washed with a buffer, and a buffer containing the compound of Example 1 (10 μM (final concentration)) was added, and then 100 nM (final concentration) of leukotriene B4 (LTB4) was added. Changes in the intracellular calcium ion concentration were measured with Flexstation (manufactured by Molecular Devices Corporation) as an increase in the fluorescence intensity (area under a curve in a time-course graph of fluorescence intensity in 10 min measurement). As a positive control of BLT1 and BLT2 antagonists, ZK158252, a known LTB4 inhibitor, was used.
# T1 sequence (Q15722 whole entry): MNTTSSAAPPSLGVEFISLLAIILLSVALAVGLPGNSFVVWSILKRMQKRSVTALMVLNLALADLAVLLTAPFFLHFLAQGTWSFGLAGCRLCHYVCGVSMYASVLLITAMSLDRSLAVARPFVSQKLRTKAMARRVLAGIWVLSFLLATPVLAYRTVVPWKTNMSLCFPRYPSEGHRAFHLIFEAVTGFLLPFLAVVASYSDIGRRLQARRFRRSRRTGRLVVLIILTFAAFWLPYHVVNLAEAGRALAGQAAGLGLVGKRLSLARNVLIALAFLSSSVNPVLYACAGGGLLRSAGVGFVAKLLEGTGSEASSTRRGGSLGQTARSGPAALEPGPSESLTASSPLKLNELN
row,Structure (SMILES),suppression of increase in the intracellular calcium ion concentration due to LTB4 stimulation
1,"CCN(CC)C(=O)/C=C(\C)c1cc2cccc(OC(C)c3ccccc3)c2o1 (stereo not shown) [Example 1, (E)-3-[7-(1-phenylethoxy)-benzofuran-2-yl]-but-2-enoic acid-diethylamide]",weaker as compared to the effect on BLT2
2,"O=C(O)CCC/C=C1\CCCCC1/C=C/C=C/C(O)C1(CC#Cc2ccccc2)CCC1 (stereo not shown) [ZK158252, reference compound]",significantly suppressed

# Biological target: T2, human BLT2 (Homo sapiens, UniProt Q9NPC1)
# T2 construct: expressed in transfected cells; host or cells: CHO cells
# T2 sequence (Q9NPC1 1-358): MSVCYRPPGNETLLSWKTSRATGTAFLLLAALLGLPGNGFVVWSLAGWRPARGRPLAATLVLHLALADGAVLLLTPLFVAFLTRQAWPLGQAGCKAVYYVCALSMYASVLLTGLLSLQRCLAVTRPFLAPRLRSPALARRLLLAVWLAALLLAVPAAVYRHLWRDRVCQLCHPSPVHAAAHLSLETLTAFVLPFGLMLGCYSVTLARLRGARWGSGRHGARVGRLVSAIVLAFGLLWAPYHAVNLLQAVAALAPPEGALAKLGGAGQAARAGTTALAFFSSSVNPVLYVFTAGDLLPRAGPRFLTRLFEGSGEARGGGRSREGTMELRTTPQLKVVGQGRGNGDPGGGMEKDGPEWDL
# Experiment: LTB4-induced intracellular calcium increase (Fluo-3) in CHO cells expressing human BLT2
# Assay type: cell-based
# Conditions: CHO cells harbouring BLT2; compound 10 μM; 100 nM LTB4; fluorescence AUC in 10 min
# Method: as §1
row,Structure (SMILES),suppression of increase in the intracellular calcium ion concentration due to LTB4 stimulation
1,"CCN(CC)C(=O)/C=C(\C)c1cc2cccc(OC(C)c3ccccc3)c2o1 (stereo not shown) [Example 1, (E)-3-[7-(1-phenylethoxy)-benzofuran-2-yl]-but-2-enoic acid-diethylamide]",suppressed by the compound of Example 1 at an intensity equivalent to or greater than the suppression by ZK158252
2,"O=C(O)CCC/C=C1\CCCCC1/C=C/C=C/C(O)C1(CC#Cc2ccccc2)CCC1 (stereo not shown) [ZK158252, reference compound]",significantly suppressed

# Tested on: not given
# Experiment: not given
# Conditions: not given
row,melting point [°C],Structure (SMILES)
1,132.1 to 134.6,O=C(/C=C/c1coc2ccccc12)N1CCOCC1 [Example 14]
2,116.9 to 124.4,COc1ccc(CCNC(=O)C=C(C)c2c(C)oc3ccc([N+](=O)[O-])cc23)cc1OC [Example 21]
3,169.1 to 171.9,COc1ccc(CCNC(=O)/C=C(\C)c2c(-c3ccccc3)oc3ccc(Cl)cc23)cc1OC [Example 11]
4,130 to 134,CCN(CC)C(=O)/C=C(\C)c1c(C)oc2ccc([N+](=O)[O-])cc12 [Example 20]
5,138.1 to 140.3,COc1ccc(CCNC(=O)/C=C/c2coc3ccccc23)cc1OC [Example 9]
6,112.2 to 117,COc1ccc(C(=CC(=O)NCCc2ccc(OC)c(OC)c2)c2cc3cc(Br)ccc3o2)cc1 [Example 17]
7,93.5 to 96,CCN(CC)C(=O)/C=C(/c1ccc(OC)cc1)c1cc2cc(Br)ccc2o1 [Example 13]
8,143.1 to 150,COc1ccc(CCNC(=O)/C=C(\C)c2c(C)oc3ccc(Br)cc23)cc1OC [Example 5]
9,150.1 to 153.5,COc1ccc(CCNC(=O)/C=C(/C)c2c(C)oc3ccc(Br)cc23)cc1OC [Example 15]
10,150.9 to 151.5,COc1ccc(CCNC(=O)/C=C(/C)c2c(C)oc3ccc(Cl)cc23)cc1OC [Example 2]
11,139 to 142,COc1cccc(NC(=O)/C=C(\C)c2c(C)oc3ccc(Cl)cc23)c1 [Example 4]
12,106.7 to 109.8,CCN(CC)C(=O)/C=C(/c1ccc(Cl)cc1)c1cc2cc(Br)ccc2o1 [Example 6]
13,150 to 153.5,O=C(/C=C(/c1ccc(Cl)cc1)c1cc2cc(Br)ccc2o1)N1CCOCC1 [Example 10]
14,160.1 to 162.2,COc1cccc(NC(=O)/C=C(/c2ccc(Cl)cc2)c2cc3cc(Br)ccc3o2)c1 [Example 16]
15,73 to 76,COc1ccc(CCNC(=O)/C=C(\C)c2c(C)oc3ccc(Cl)cc23)cc1OC [Example 3]
